How the values were obtained:
[1] = tested on: THP-1-differentiated macrophages; test: Pro-inflammatory cytokine expression in LPS-challenged THP-1-differentiated macrophages; type: cell-based, human; parameters: key to IL-6, significant reduction in culture supernatant vs LPS treatment / TNF-α, significant reduction in culture supernatant vs LPS treatment / IL-1β, significant reduction in culture supernatant vs LPS treatment: “NS” indicates a non-significant reduction in the indicated cytokine; “+” indicates a p value <0.05 in Tukey post test; “++” indicates a p value <0.01 in Tukey post test; conditions: for IL-1β, significant reduction in culture supernatant vs LPS treatment / IL-6, significant reduction in culture supernatant vs LPS treatment / TNF-α, significant reduction in culture supernatant vs LPS treatment: 20 min pre-treatment, 24 hrs LPS
Procedure: Differentiation with PMA causes THP-1 monocyte cells to acquire functional and morphological resemblance to macrophages. LPS interacts with THP-1 differentiated macrophage through the toll-like receptor 4, triggering the inflammatory response and stimulating pro-inflammatory cytokine release and eventually leading to cellular death. Compounds were tested to determine their anti-inflammatory effects on LPS-challenged macrophage cultures. THP-1-differentiated macrophages were treated with test compounds for 20 minutes, followed by 24 hrs of LPS challenge. Culture supernatants were then collected to analyzed for the presence of pro-inflammatory cytokines: […], interleukin 6 (IL-6) and tumor necrosis factor α (TNF-α).
Cytokine quantification in cell culture supernatants was accomplished by HTRF kits to assess levels of IL-1β (Human IL-1β kit, #62HIL1BPEG, Cisbio) and IL-6 (Human IL-6 kit, 62HIL06PET, Cisbio), and by ELISA to determine the levels of TNF-α (Human TNF-α ELISA kit, KHC3011, ThermoFisher).
Data analysis was performed via 1-way ANOVA with Tukey post-test compared to LPS treatment cultures using Prism statistical software (GraphPad). Tabular data indicates significance of reduction in culture supernatants for the indicated analyte at the indicated doses.

[2] = tested on: CFA-stimulated rats; test: CFA inflammatory pain model, thermal hyperalgesia (Hargreaves method); type: in vivo; conditions: Day 5, 1 hour pre-dosing; data not shown
[3] = tested on: CFA-stimulated rats; test: as above; type: in vivo; parameters: key to Thermal Hyperalgesia, change in sensitivity compared to CFA alone / Thermal Hyperalgesia, significant reduction in pain behavior vs CFA alone: NS = no statistically significant change in sensitivity compared to CFA alone; + = statistically significant change in sensitivity compared to CFA alone, p < 0.05
Procedure: (§1) Response to peripheral inflammatory stimulus can be modeled by administering complete Freund's adjuvant (CFA), a suspension of desiccated mycobacterium in paraffin oil and mannide monooleate, by subcutaneous injection into the rat's footpad. The introduction of CFA to peripheral tissues leads to a rapid, sustained, inflammatory reaction in the treated tissue within 24 hours. Subcutaneous administration of CFA in the plantar region of the paw induces inflammatory pain behaviors that persist for at least 8 days. CFA treatment also leads to the accumulation of inflammatory cytokines in paw tissue at the site of injury, which, if unresolved, can lead to formation of fibrotic tissue. The extent of inflammatory response to CFA can be assessed by quantification of inflammatory cytokines in paw skin lysate, and inflammatory pain behaviors by mechanical allodynia (von Frey test) and thermal hyperalgesia (Hargreaves test).
(§2) In one study, Compound 2a was tested for its ability to reduce inflammatory pain behaviors in the CFA inflammation model. On study day 0, […] of CFA was administered subcutaneously in the plantar of the right hind paw. Animals were treated daily with Compound 2a in solution via oral gavage (PO) at doses of 1, 0.1, and 0.025 mg/kg. Treatment began before CFA injection on study day −1 and continued through study day 8.
Thermal hyperalgesia was measured using the Hargreaves method. A temperature ramp was applied to the right hind paw and the paw withdrawal latency (PWL) was recorded as a measure of sensitivity to thermal stimulation. […] Statistical analysis was performed using a 1-way ANOVA with Tukey post-test. A p-value below 0.05 was considered statistically significant.
(§3) In another study, Compounds 1a, 5a, and 6a were similarly tested against CFA-induced inflammatory stimulation in the right hind foot for their ability to reduce pain behaviors. This study also included quantification of inflammatory cytokine expression in paw skin lysate. Inflammatory pain stimulation with CFA injection and assessment of mechanical and thermal pain behaviors were performed as described above, with the exception that only post-dose pain behavior testing is reported.
(§4) Intraplantar CFA injection occurred at day 0. Treatment with Compounds 1a, 5a, and 6a occurred at days −2, 1, 3, and 7. At day 8, the rats were terminated and cytokine levels were measured in paw skin and plasma. Tissue from paw bone, joint, and muscle were obtained for H&E staining and analysis. Cytokine levels in test compound-treated animals were compared to CFA-stimulated animals. Analytes included interleukin 4 (IL-4), tumor necrosis factor alpha (TNF-α) and interferon gamma (IFN-γ). Statistical analysis consisted of 1-way ANOVA followed by Dunnett's multiple comparisons post-test. Mechanical allodynia and thermal hyperalgesia were tested 1 hour post-dosing on days 1, 3, and 7. PWT refers to […] paw withdrawal threshold where a higher value corresponds to a higher pain threshold. PWL refers to […] paw withdrawal latency where a higher value corresponds to a higher pain threshold.

[4] = tested on: CFA-stimulated rats; test: CFA inflammatory pain model, cytokine expression in paw skin; type: in vivo; parameters: key to IFN-γ expression in paw skin, change compared to CFA alone / IL-4 expression in paw skin, change compared to CFA alone / TNF-α expression in paw skin, change compared to CFA alone: NS = no statistically significant change in expression compared to CFA alone; + = statistically significant change in expression compared to CFA alone, p < 0.05; conditions: for IFN-γ expression in paw skin, change compared to CFA alone / IL-4 expression in paw skin, change compared to CFA alone / TNF-α expression in paw skin, change compared to CFA alone: day 8
Procedure: as §1, §3, §4

[5] = tested on: CFA-stimulated rats; test: CFA inflammatory pain model, mechanical allodynia (von Frey test); type: in vivo; parameters: key to Mechanical Allodynia, change in sensitivity compared to CFA alone / Mechanical Allodynia, significant reduction in pain behavior vs CFA alone: NS = no statistically significant change in sensitivity compared to CFA alone; + = statistically significant change in sensitivity compared to CFA alone, p < 0.05
Procedure: as §1, §2
Mechanical allodynia was measured using the von Frey test. In this test, rats were placed on a wire mesh and a series of filaments designed to deliver probing force ranging from 4 to 26 grams were applied to the mid-plantar surface of the right hind paw. Animals indicated pain response by lifting the probed paw. The minimal force required to elicit the withdrawal response was recorded as the paw withdrawal threshold (PWT). Von Frey testing was performed 1 hour after Compound 2a dosing on study day 1, 3, and 7, and was also tested pre-dosing on day 7. Statistical analysis was performed using a 1-way ANOVA with Tukey post-test. A p-value below 0.05 was considered statistically significant. Control animals stimulated with CFA but treated with only vehicle had high sensitivity to mechanical stimulation compared to normal control animals.
as §3, §4

[6] = 2.5 mg/kg PO, Day 1, 1 h post-dose
[7] = 2.5 mg/kg PO, Day 3, 1 h post-dose
[8] = 2.5 mg/kg PO, Day 7, 1 h post-dose
[9] = 10 mg/kg PO, Day 1, 1 h post-dose
[10] = 10 mg/kg PO, Day 3, 1 h post-dose
[11] = 10 mg/kg PO, Day 7, 1 h post-dose

CCC(C)CN1CC2N(Cc3ccc(OC(F)F)cc3)CCC(=O)N2[C@@H](C)C1=O (some centres unmarked) [Compound 6a]
IL-1β, significant reduction in culture supernatant vs LPS treatment ([1]; 0.1 nM): NS
IL-6, significant reduction in culture supernatant vs LPS treatment ([1]; 0.1 nM): NS
TNF-α, significant reduction in culture supernatant vs LPS treatment ([1]; 0.1 nM): NS
IL-1β, significant reduction in culture supernatant vs LPS treatment ([1]; 10 nM): NS
IL-6, significant reduction in culture supernatant vs LPS treatment ([1]; 10 nM): NS
TNF-α, significant reduction in culture supernatant vs LPS treatment ([1]; 10 nM): NS
IL-1β, significant reduction in culture supernatant vs LPS treatment ([1]; 1000 nM): + (“+” indicates a p value <0.05 in Tukey post test)
IL-6, significant reduction in culture supernatant vs LPS treatment ([1]; 1000 nM): NS
TNF-α, significant reduction in culture supernatant vs LPS treatment ([1]; 1000 nM): + (“+” indicates a p value <0.05 in Tukey post test)
expression of IL-1β and TNF-α ([1]; at at least one tested dose): significantly reduced
PWL (paw withdrawal latency) [2]: statistically significant increase
Thermal Hyperalgesia, significant reduction in pain behavior vs CFA alone [3, 6]: NS
Thermal Hyperalgesia, significant reduction in pain behavior vs CFA alone [3, 7]: NS
Thermal Hyperalgesia, significant reduction in pain behavior vs CFA alone [3, 8]: + (+ = statistically significant change in sensitivity compared to CFA alone, p < 0.05)
Thermal Hyperalgesia, significant reduction in pain behavior vs CFA alone [3, 9]: NS
Thermal Hyperalgesia, significant reduction in pain behavior vs CFA alone [3, 10]: NS
Thermal Hyperalgesia, significant reduction in pain behavior vs CFA alone [3, 11]: + (+ = statistically significant change in sensitivity compared to CFA alone, p < 0.05)
study days on which thermal sensitivity was reduced ([3]; PO, post-dose testing, any tested dose): study day 7
PWL (paw withdrawal latency) vs CFA+vehicle ([3]; day 7 at each dose, data not shown): statistically significant increase
IFN-γ expression in paw skin, change compared to CFA alone ([4]; 2.5 mg/kg PO): NS
IL-4 expression in paw skin, change compared to CFA alone ([4]; 2.5 mg/kg PO): + (+ = statistically significant change in expression compared to CFA alone, p < 0.05)
TNF-α expression in paw skin, change compared to CFA alone ([4]; 2.5 mg/kg PO): + (+ = statistically significant change in expression compared to CFA alone, p < 0.05)
IFN-γ expression in paw skin, change compared to CFA alone ([4]; 10 mg/kg PO): NS
IL-4 expression in paw skin, change compared to CFA alone ([4]; 10 mg/kg PO): NS
TNF-α expression in paw skin, change compared to CFA alone ([4]; 10 mg/kg PO): NS
IFN-γ expression in paw skin ([4]; both tested doses): no effect
Mechanical Allodynia, significant reduction in pain behavior vs CFA alone [5, 6]: NS
Mechanical Allodynia, significant reduction in pain behavior vs CFA alone [5, 7]: NS
Mechanical Allodynia, significant reduction in pain behavior vs CFA alone [5, 8]: NS
Mechanical Allodynia, significant reduction in pain behavior vs CFA alone [5, 9]: NS
Mechanical Allodynia, significant reduction in pain behavior vs CFA alone [5, 10]: NS
Mechanical Allodynia, significant reduction in pain behavior vs CFA alone [5, 11]: NS

Source: patent publication US20250288587A1, “Methods of Treating Fibrosis” (Athira Pharma, Inc., priority 2022, published 2025)
